Here are results for two molecules from patent publication US20110236349A1, “Use of Epidermal Growth Factor Inhibitors in the Treatment of Viral Infection” (priority 2008, published 2011).

Test [1] has as its system Rhinovirus 16. Briefly: Rhinovirus 16 infection of NCI-H292 airway epithelial cells, quantified by viral plaque assay on HeLa cells. Type of test: cell-based, Rhinovirus 16 (major group) in human NCI-H292 cells. The following applies: AG 1478 10 μM; RV16 MOI 10; NCI-H292 cell lysates; n=2. On the procedure:
The effect of an EGF-R inhibitor on rhinovirus infectivity was assayed. First, human airway epithelial (NCI-H292 American Type Culture Collection Catalog No. CRL-1848) cells were treated with Rhinovirus 16 (major group Rhinovirus (RV) at multiplicity of infection (MOI) 10) or RV16 plus a selective EGFR tyrosine kinase inhibitor (AG 1478) at 10 μM. Cell lysates from these NCI-H292 cell cultures were collected at […]. To quantitate Rhinovirus infection in airway epithelial cells, cell lysates were analyzed by viral plaque assay, a technique that is commonly utilized to measure viral infection. Next, serial dilutions of NCI-H292 cell lysates were placed on HeLa cell cultures for a standard plaque assay. Cell cultures were covered with an agarose overlay. Cultures were incubated for three days. After three days, cell cultures were stained with crystal violet and the number of plaques was counted. […] FIG. 1A. […]
The effect of an antibody specific for EGF-R on Rhinovirus 16 (RV16) infection was also assessed. […]
FIGS. 1A and 1B. Viral quantification of Rhinovirus infection by plaque assay. […] Cell lysates were collected after 24 h and Rhinovirus infection was quantified by plaque assay [(A) n=2±SEM; (B) n=1].

Test [2] has as its system respiratory syncytial virus (RSV). Briefly: RSV infection of epithelial HeLa cell cultures, viral quantification by TCID50. The test is classed as cell-based. On the procedure: To study the effect of a selective EGFR inhibitor on RSV infection, viral quantification by tissue culture-infective dose (TCID50)/100 μL in epithelial HeLa cell cultures treated with or without the selective EGFR tyrosine kinase inhibitor AG 1478 was used. […] FIG. 4A, RSV alone 10^2.5±1 TCID50 vs RSV plus AG 1478 (10 μM) 0 TCID50; n=2. FIG. 4B, RSV alone 10^4.38±0.1 TCID50 vs RSV plus AG 1478 (1 μM) 0 TCID50; n=2.
FIGS. 4A and 4B. Viral quantification by tissue culture-infective dose (TCID50)/100 μL in epithelial cell cultures treated with or without the selective EGFR inhibitor, AG 1478 [(A) AG1478 (10 μM) in TCID50/100 μL at 2 days ±SEM, (n=2 separate experiments); (B) AG 1478 (1 μM) in TCID50/100 μL at 4 days ±SEM, (n=2 separate experiments).
A similar set of experiments was conducted, to test the effect of Gefitinib (Iressa; ZD 1839; N-(3-chloro-4-fluoro-phenyl)-7-methoxy-6-(3-morpholin-4-ylpropoxy)quinazolin-4-amine) on RSV infection. Gefitinib (1 and 10 μM) suppressed RSV virus infection. The data are shown in FIG. 5 (RSV alone 10^1.5 TCID50 (first column), RSV plus Gefitinib (1 μM) 0 TCID50 (second column), and RSV plus Gefitinib (10 μM) 0 TCID50 (third column); n=1).
FIG. 5. Viral quantification by tissue culture-infective dose (TCID50)/100 μL at 2 days in epithelial cell cultures treated with or without the selective EGFR inhibitor, Gefitinib. RSV alone (first column), RSV plus Gefitinib (1 μM, second column), and RSV plus Gefitinib (10 μM, third column); n=1.

Test [3] deals with Influenza A/H1N1/PR8. Type of test: cell-based. Conditions: 10 μM; 24 h; MOI~1; eight fields at 20×; n=4; Influenza alone 316±19 cells; p<0.0001.
Test [4] deals with Rhinovirus 16. Briefly: Rhinovirus 16 infection of HeLa cells measured by flow cytometry. The test is classed as cell-based, Rhinovirus 16 (major group) in HeLa cells. Conditions: RV16 MOI 10, 6 h, RV alone 62%, control 1%. Here is the method:
HeLa is an epithelial cell line that is routinely used to evaluate Rhinovirus infection. HeLa; American Type Culture Collections (ATCC) No. CCL-2. Here, HeLa cell cultures were treated with serum-free medium (Control), or with serum-free medium containing Rhinovirus 16 (major group RV at multiplicity of infection (MOI) 10) with and without a selective EGFR tyrosine kinase inhibitor (AG 1478). After 6 h, cell cultures were collected and stained with a monoclonal antibody that selectively binds to Rhinovirus. Cells were processed for flow cytometry and Rhinovirus infection in HeLa cells was measured. The data, shown in FIG. 2, are expressed as percent infected cells. Control (no RV): 1%; RV: 62%; RV+AG1478 (5 μM): 13%; and RV+AG1478 (10 μM): 9%. […] No effect with a platelet derived growth factor (PDGF) inhibitor (another tyrosine kinase inhibitor) was observed.
(In flow cytometry, cells or beads pass a laser one at a time.)

On to `COc1cc2ncnc(Nc3cccc(Cl)c3)c2cc1OC` [AG 1478, 4-(3-chlorophenylamino)-6,7-dimethoxyquinazoline], for which, in test [1], the “Rhinovirus infection by plaque assay” value is reported as “suppress rhinovirus infection”. Besides, the “RSV tissue culture-infective dose (TCID50)” value in test [2] (1 μM, at 4 days, HeLa, RSV alone 10^4.38±0.1, n=2) stood at 0 TCID50/100 μL; in test [2] (10 μM, at 2 days, HeLa), 0 TCID50/100 μL. Besides, the “cells staining positive for Influenza” value in test [3] turned out to be 94±49 cells. Besides, the percent infected cells stood at 13% in test [4] (5 μM) and 9% in test [4] (10 μM).

Turning to `COc1cc2ncnc(Nc3ccc(F)c(Cl)c3)c2cc1OCCCN1CCOCC1` [Gefitinib, N-(3-chloro-4-fluoro-phenyl)-7-methoxy-6-(3-morpholin-4-ylpropoxy)quinazolin-4-amine], the “RSV tissue culture-infective dose (TCID50)” value in test [2] (1 μM, at 2 days, RSV alone 10^1.5, n=1) is given as 0 TCID50/100 μL; in test [2] (10 μM, at 2 days, HeLa), 0 TCID50/100 μL.
